Data on 13 molecules can be found in patent publication US9249157B2, “Tricyclic heterocycle compounds” (BRISTOL-MYERS SQUIBB COMPANY, priority 2012, dated 2016).

The structures appear in SMILES notation.

Assay [1] relates to human tumor xenografts. The assay can be described thus: Human Tumor Xenograft Models in Mice (tumor type not stated). Particulars: for antitumor activity with oral administration (PO): Human Tumor Xenograft Models in mice. In kind it is in vivo. The text has this:
Human Tumor Xenograft Models in Mice
All rodents were obtained from Harlan Sprague Dawley Co. (Indianapolis, Ind.), and maintained in an ammonia-free environment in a defined and pathogen—free colony. All mice were quarantined approximately 1 week prior to their use for tumor propagation and drug efficacy testing. Mice were fed food and water ad libitum. The animal care program of Bristol-Myers Squibb Pharmaceutical Research Institute is fully accredited by the American Association for Accreditation of Laboratory Animal Care (AAALAC). All experiments were performed in accordance with Bristol-Myers Squibb (BMS) animal test methods and guidelines.
Tumor xenografts were grown and maintained subcutaneously (SC) in immunocompromized balb/c nu/nu nude or NOD-SCID mice (Harlan Sprague Dawley). Tumors were propagated as subcutaneous transplants in the appropriate mouse strain (Table 10) using tumor fragments obtained from donor mice.
The required numbers of animals needed to detect a meaningful response were pooled at the start of the experiment and each was given a subcutaneous implant of a tumor fragment (˜20 mg) with a 13-gauge trocar. Tumors were allowed to grow to the pre-determined size window (tumors outside the range were excluded) and animals were evenly distributed to various treatment and control groups. […]
Tumor response was determined by measurement of tumors with a caliper twice a week, until the tumors reached a predetermined “target” size of 0.5 gm or 1 gm depending on the tumor type. […]
Tumor response criteria are expressed in terms of tumor growth inhibition (% TGI). […] For this purpose, the tumor weight of a group is expressed as medium tumor weight (MTW).
Whenever possible, antitumor activity was determined at a range of dose levels up to the maximum tolerated dose (MTD) which is defined as the dose level immediately below which excessive toxicity (i.e., more than one death) occurred. When death occurred, the day of death was recorded. […]

Assay [2] has as its system human Notch 3. The assay can be described thus: Notch-CBF1 Transactivation Assay (Notch 3). The conditions noted are these: HeLa cells transfected with truncated Notch 3 and CBF1 luciferase reporter; 18 hours incubation. In kind it is cell-based. The text has this:
(§1) Notch-CBF1 Transactivation Assay
(§2) The Notch-CBF1 (C-promoter binding factor I) cell based transactivation assay is based on the ability of the released Notch intracellular domain fragments (NICDs) to function as transcription factors in conjunction with CBF1 and other nuclear factors. Luciferase assays were used to measure the antagonism of Notch-CBF1 transcriptional activity. HeLa cervical cancer cells are transiently co-transfected with pCDNA3.1/Hygro plasmids containing truncated Notch 1, Notch 2, Notch 3, or Notch 4 receptors and a PGL3 luciferase reporter vector containing 4 copies of CBF1 binding site. The cells were then tested for Notch-CBF1 activity in the absence or presence of test compounds. HeLa cells, maintained in DMEM (high glucose with HEPES), 1× glutamine/penicillin/streptomycin and 10% Fetal Bovine serum, were transiently transfected in a T175 Flask (4.5×10^6 cells/flask) using the Monster Transfection Kit (Minis #MIR2906) according to manufacturers specifications. Table 1 denotes respective DNA quantity for the transfections.
(§3) Six hours post-transfection, cells were trypsinized and plated into a 384-well black Poly-D-lysine coated tissue culture plate at a density of 5×10^3 cells/well in 95 μL assay media (DMEM (high glucose with HEPES), 1× glutamine/penicillin/streptomycin, 0.0125% BSA, 1× non-essential amino acids). Assay media (5 μL) containing test compounds in final concentrations ranging from 5 μM to 8.4×10^−5 μM (3 fold serial dilutions) were added to the cells and the cell plates were then incubated for 18 hours at 37° C. and 5% CO2. Control wells contained DMSO vehicle (total counts) or 0.5 μM of an in-house small molecule inhibitor (background counts). Duplicates were used for each sample. Luciferase activity was measured after a 20-minute incubation with 50 μl STEADY-GLO® luciferase reagents according to manufacturer's specifications (Promega, Cat. #E2550) and analyzed by Envision plate reader (PerkinElmer, Boston, Mass.).
(§4) The antagonist effect of compounds was expressed as 100×[1−(average sample−average background)/(average total−average background)] where sample is the luciferase activity in the presence of test compound, background is equal to the luciferase activity in the presence of the small molecule inhibitor control and the total is signal induced in DMSO wells.
(In general: Reporter assays use an easily measured gene product as a stand-in for the process of interest.)

The test system of assay [3] is human Notch 1. As to the kind of experiment: Notch-CBF1 Transactivation Assay (Notch 1). In kind it is cell-based. The conditions noted are these: HeLa cells transfected with truncated Notch 1 and CBF1 luciferase reporter; 18 hours incubation.
From the text: as §1, §2, §3, §4

Take `Cc1nocc1[C@H](C(N)=O)[C@@H](CCC(F)(F)F)C(=O)N[C@H]1N=C(c2ccccc2)c2cccc3c2N(CC(F)(F)CO3)C1=O` [Example 1, (2R,3R)—N-((7S)-3,3-Difluoro-6-oxo-9-phenyl-3,4,6,7-tetrahydro-2H-[1,4]diazepino[1,7,6-ef][1,5]benzoxazepin-7-yl)-3-(3-methyl-4-isoxazolyl)-2-(3,3,3-trifluoropropyl)succinamide]: in assay [1], the “antitumor activity with oral administration (PO)” value is listed as “showed antitumor activity”. The “antitumor activity, intravenous route (IV)” value in assay [1] (human tumor xenografts implanted in mice, IV) is on record as “exhibited antitumor activity”.

Take `NC(=O)[C@@H](CC1CC1)[C@@H](CCC(F)(F)F)C(=O)N[C@H]1N=C(c2ccccc2)c2cccc3c2N(CC(F)(F)CO3)C1=O` [Example 2, (2R,3S)-3-(Cyclopropylmethyl)-N-((7S)-3,3-difluoro-6-oxo-9-phenyl-3,4,6,7-tetrahydro-2H-[1,4]diazepino[1,7,6-ef][1,5]benzoxazepin-7-yl)-2-(3,3,3-trifluoropropyl)succinamide]: the “antitumor activity with oral administration (PO)” value in assay [1] was “showed antitumor activity”.

In general, IC50 refers to the concentration at which inhibition is half-maximal. High values mean lower potency, low ones higher potency. In turn, `NC(=O)[C@@H](CC1CC1)[C@@H](CCC(F)(F)F)C(=O)N[C@H]1N=C(c2ccccc2)c2cccc3c2N(CCO3)C1=O` [Example 6, (2R,3S)-3-(Cyclopropylmethyl)-N-((6S)-5-oxo-8-phenyl-2,3,5,6-tetrahydro[1,4]oxazino[2,3,4-jk][1,4]benzodiazepin-6-yl)-2-(3,3,3-trifluoropropyl)succinamide] had an IC50 in assay [2] of 0.0148 µM.

Regarding `NC(=O)[C@@H](CCCF)[C@@H](CCC(F)(F)F)C(=O)N[C@H]1N=C(c2ccccc2)c2cccc3c2N(CCO3)C1=O` [Example 8, (2R,3S)-3-(3-Fluoropropyl)-N-((6S)-5-oxo-8-phenyl-2,3,5,6-tetrahydro[1,4]oxazino[2,3,4-jk][1,4]benzodiazepin-6-yl)-2-(3,3,3-trifluoropropyl)succinamide], the figures for the IC50 in assay [3] and in assay [2] were 0.0148 µM and 0.0281 µM, respectively.

In the case of `Cc1cccc(C2=N[C@H](NC(=O)[C@H](CCC(F)(F)F)[C@H](CCC(F)(F)F)C(N)=O)C(=O)N3CCOc4cccc2c43)c1` [Example 11, (2R,3S)—N-((6S)-8-(3-Methylphenyl)-5-oxo-2,3,5,6-tetrahydro[1,4]oxazino[2,3,4-jk][1,4]benzodiazepin-6-yl)-2,3-bis(3,3,3-trifluoropropyl)succinamide], the IC50 in assay [2] worked out at 0.0147 µM. This counts as double-digit nanomolar.

`Cc1cccc(C2=N[C@H](NC(=O)[C@H](CCC(F)(F)F)[C@@H](C(N)=O)c3ccccc3)C(=O)N3CCOc4cccc2c43)c1` [Example 13, (2R,3R)—N-((6S)-8-(3-Methylphenyl)-5-oxo-2,3,5,6-tetrahydro[1,4]oxazino[2,3,4-jk][1,4]benzodiazepin-6-yl)-3-phenyl-2-(3,3,3-trifluoropropyl)succinamide] registered an IC50 in assay [3] of 0.0148 µM.

With `CCC[C@H](C(N)=O)[C@@H](CCC(F)(F)F)C(=O)N[C@H]1N=C(c2cccc(Cl)c2)c2cccc3c2N(CCO3)C1=O` [Example 15, (2R,3S)—N-((6S)-8-(3-Chlorophenyl)-5-oxo-2,3,5,6-tetrahydro[1,4]oxazino[2,3,4-jk][1,4]benzodiazepin-6-yl)-3-propyl-2-(3,3,3-trifluoropropyl)succinamide], the IC50 in assay [3] stood at 0.0169 µM; in assay [2], 0.0283 µM.

In the case of `CCC[C@@H](C(=O)N[C@H]1N=C(c2ccccc2)c2cccc3c2N(CCO3)C1=O)[C@H](CCC(F)(F)F)C(N)=O` [Example 17, (2R,3S)—N-((6S)-5-Oxo-8-phenyl-2,3,5,6-tetrahydro[1,4]oxazino[2,3,4-jk][1,4]benzodiazepin-6-yl)-2-propyl-3-(3,3,3-trifluoropropyl)succinamide], the results for the IC50 in assay [3] and in assay [2] were 0.0139 µM and 0.0201 µM, respectively.

Consider `NC(=O)[C@@H](CC1CC1)[C@@H](CC1CC1)C(=O)N[C@H]1N=C(c2ccccc2)c2cccc3c2N(CCO3)C1=O` [Example 18, (2R,3S)-2,3-Bis(cyclopropylmethyl)-N-((6S)-5-oxo-8-phenyl-2,3,5,6-tetrahydro[1,4]oxazino[2,3,4-jk][1,4]benzodiazepin-6-yl)succinamide], for which the IC50 in assay [3] came to 0.0219 µM; in assay [2], 0.0164 µM.

`NC(=O)[C@@H](CC1CC1)[C@@H](CCC(F)(F)F)C(=O)N[C@H]1N=C(c2ccccc2)c2cccc3c2N(CCCO3)C1=O` [Example 23, (2R,3S)-3-(Cyclopropylmethyl)-N-((7S)-6-oxo-9-phenyl-3,4,6,7-tetrahydro-2H-[1,4]diazepino[1,7,6-ef][1,5]benzoxazepin-7-yl)-2-(3,3,3-trifluoropropyl)succinamide] showed an IC50 in assay [2] of 0.0142 µM. This counts as double-digit nanomolar.

As to `Cc1nocc1[C@H](C(N)=O)[C@@H](CCC(F)(F)F)C(=O)N[C@H]1N=C(c2ccccc2)c2cccc3c2N(CCN3)C1=O` [Example 24, (2R,3R)-3-(3-Methyl-4-isoxazolyl)-N-((6S)-5-oxo-8-phenyl-2,3,5,6-tetrahydro-1H-[1,4]diazepino[1,7,6-de]quinoxalin-6-yl)-2-(3,3,3-trifluoropropyl)succinamide], the IC50 in assay [3] is 0.0169 µM; in assay [2], 0.0283 µM.

Take `CCC[C@H](C(N)=O)[C@@H](CCC(F)(F)F)C(=O)N[C@H]1N=C(c2ccccc2)c2cccc3c2N(CCN3)C1=O` [Example 25, (2R,3S)—N-((6S)-5-Oxo-8-phenyl-2,3,5,6-tetrahydro-1H-[1,4]diazepino[1,7,6-de]quinoxalin-6-yl)-3-propyl-2-(3,3,3-trifluoropropyl)succinamide]: the IC50 in assay [3] amounted to 0.0145 µM; in assay [2] it was 0.0169 µM.

In assay [3], `NC(=O)[C@@H](c1ccccc1)[C@@H](CCC(F)(F)F)C(=O)N[C@H]1N=C(c2ccccc2)c2cccc3c2N(CCN3)C1=O` [Example 27, (2R,3R)—N-((6S)-5-Oxo-8-phenyl-2,3,5,6-tetrahydro-1H-[1,4]diazepino[1,7,6-de]quinoxalin-6-yl)-3-phenyl-2-(3,3,3-trifluoropropyl)succinamide] came in with an IC50 of 0.0151 µM.
